Earlier results, collected in patent US20040235808A1, “Androstanes as androgen receptor modulators” (priority 2001, published 2004).

Legend:
[1] = after 7 years of treatment
[2] = median of 22 months of treatment

NCCCC(O)(P(=O)([O-])O)P(=O)(O)O.O.O.O.[Na+] [alendronate, (4-amino-1-hydroxybutylidene)-bis-phosphonate monosodium trihydrate]
increase in spinal BMD [1]: 11%

hPTH(1-34): human parathyroid hormone 1-34 fragment (SVSEIQLMHNLGKHLNSMERVEWLRKKLQDVHNF; Parathyroid hormone; UniProt P01270 32-65, looked up, fragment)
reduction in nonvertebral fractures [2]: 54% | reduction in spine fractures [2]: ≥ 65%
